Assay results published in patent US5552267A, “Solution for prolonged organ preservation” (priority 1994, dated 1996).

Tests used:
lung = experiment: orthotopic rat left lung transplantation, nitroglycerin series; type: in vivo, rat (male Lewis)
heart = experiment: heterotopic rat cardiac transplant, nitric oxide series, graft survival/score; type: in vivo, rat (male Sprague-Dawley); details: for graft survival: NTG 0.1 mg/ml where added
Source text: Male Sprague-Dawley rats (350 grams, Camm Research, Wayne, N.J.) were used, and harvest, preservation, and transplantation procedures performed as described^8. Preservation solutions included lactated Ringer's (LR) solution (Baxter, Edison, N.J.), or LR supplemented with nitroglycerin (DuPont, Wilmington, Del.), sodium nitroprusside (Roche Laboratories, Nutley, N.J.), N^G -monomethyl-L-arginine (L-NMMA; Chembiochem, Salt Lake City, Utah), L-arginine (Sigma Chemical Co., St. Louis, Mo.), or 8-bromoguanosine3',5'monophosphate (8-Br-cGMP; Sigma). Components were combined within 4 hrs of donor cardiectomy, and preservation solutions were kept at 4° C. All of these solutions were at the pH of LR (6.6). University of Wisconsin solution (UW) was purchased from Dupont. […] Ten minutes after removal of the cross-clamp, an electrocardiogram was taken (Grass Polygraph, Quincy, Mass.) and the heart was judged by the same blinded investigators throughout based on the presence/absence of regular contractions and a transplant score (0-5, worst-best, respectively) employing the following criteria: contraction (poor=0, average=1, vigorous=2), tissue turgor (hard=0, average=1, soft=2), and color (dusky=0, pink=1).
Graft survival data was analyzed by contingency analysis (chi-square). Transplant scores, microsphere perfusion, myeloperoxidase, NO synthase, and platelet serotonin release data were analyzed using ANOVA for unpaired variables with the Tukey test used to discriminate significant differences between group means. Values are expressed as means ±SEM, with a p<0.05 considered statistically significant.

[1] = system: cardiac graft vasculature; experiment: perfusion of donor grafts by microspheres, nitric oxide series; type: in vivo, rat; details: 12 h preservation in LR
Protocol: Ten minutes after restoration of blood flow, 0.5 ml of 10 μm diameter microspheres (10^6 /ml) (E-Z Trac, Los Angeles, Calif.) was injected into the donor aortic root. Deposition of microspheres in ventricular tissue was assessed following alkaline hydrolysis, washing, and counting of microspheres as described^8, with results expressed as number of spheres per (40×) field per gram of ventricle. A minimum of ten fields were counted and the mean ±SEM is reported.

nitric oxide synthase = experiment: cardiac nitric oxide synthase activity (L-arginine to L-citrulline conversion); type: biochemical, rat; details: LR with vs without supplement, 12 h
Protocol: Hearts were either freshly explanted, preserved, or preserved/transplanted (with 10 min. of reperfusion), after which they were excised. The coronary arteries were flushed with physiologic saline, the atria and great vessels excised, and the ventricular cavities rinsed free of residual intracavitary blood. Samples were flash-frozen in liquid nitrogen and stored at -80° C. until the time of assay. Extracts were prepared by homogenizing tissue at 4° C. in the presence of protease inhibitors (aprotinin, epsilon amino caproic acid, PMSF, pepstatin A, and chymostatin), and centrifuging (20,000 rpm×20 min) to remove cellular debris. The extract (20 μg of protein by the method of Lowry^15) was incubated for 60 min. in the presence of CaCl2 (10 μM), FAD (8 μM), dithiothreitol (60 μM)(Sigma), tetrahydrobiopterin (8 μM; B. Schirks, Switzerland), and ^3 H-L-arginine (0.072 μM, 5 μCi;, Amersham, Arlington Heights, Ill.). Thin layer chromatography (TLC) was performed with 5 μl of the reaction mix, using methanol:chloroform:water:ammonium hydroxide (9:2:8:3) as the running solvent. Silica gel TLC plates (Sigma) were stained with ninhydrin (1 g/500 ml ethanol) and the spots corresponding to L-arginine, L-ornithine, and L-citrulline cut out and counted. […] Results are expressed as the mean ±SEM of 3 determinations.

[2] = system: neutrophil accumulation in lung graft; experiment: lung graft myeloperoxidase, nitroglycerin series; type: in vivo, rat; details: NTG 0.1 mg/mL in EC, 6 h
Protocol: Thirty minutes following ligation of the native right pulmonary artery, or at the time of recipient death, transplanted lungs were removed, rinsed briskly in physiologic saline, and snap frozen in liquid nitrogen until the time of myeloperoxidase or TBARs assay.
Tissue was homogenized in phosphate buffer (50 mM, pH 5.5, 5 ml/gm of tissue) containing hexadecyltrimethyl ammonium bromide (0.5%, Sigma). The assay was performed, as previously described^35, by thawing the sample, centrifuging at 40,000 g for 15 minutes, and decanting the supernatant, which was assayed for myeloperoxidase activity using a standard chromogenic spectrophotometric technique in which test sample (0.03 mL) was added to phosphate buffer (0.97 mL) containing O-dianisidinedihydrochloride (Sigma) and hydrogen peroxide (0.0005%), and change in absorbance at 460 nm was measured over 1 minute (increase in OD was linear over this time interval).

[3] = system: neutrophil infiltration of lung graft; experiment: lung graft myeloperoxidase assay, cGMP series; type: in vivo, rat; details: 6 h in EC then transplantation
Protocol: Thirty minutes following restoration of blood flow, transplanted lungs were excised, rinsed briskly in physiologic saline, and snap frozen in liquid nitrogen until the time of assay. These lungs were then homogenized in phosphate buffer (50 mM; pH 6.0, 5 ml/gm of tissue) containing hexadecyltrimethylammonium bromide (0.5%; HTAB, [Sigma]) and frozen at -80° C. The myeloperoxidase assay was performed, as described^32, by thawing the sample, centrifuging at 40,000 g for 15 minutes at 4° C., and decanting the supernatant, which was assayed for myeloperoxidase activity using standard chromogenic spectrophotometric technique: test sample (0.03 ml) was added to sample buffer (0.97 ml of 50 mM phosphate buffer, pH 6.0) containing O-dianisidine dihydrochloride (Sigma), hydrogen peroxide (0.006%), and change in absorbance at 460 nm was measured over 1 min (increase in OD was linear over this time interval).

[4] = 6 h in EC, NTG 0.1 mg/mL where added

SMILES | pulmonary artery flushing time (lung; 30 mL at constant pressure during harvest) | recipient survival (lung; 6 h in EC, 30 min, supplements NTG 0.1 mg/mL, hydralazine 0.02 μg/mL) | arterial oxygenation (lung; [4]) | pulmonary arterial flow (lung; [4]) | pulmonary vascular resistance (lung; [4]) | concentration of maximal beneficial effect (lung; range 0.001 to 0.1 mg/mL) | graft survival (heart; 24-28 h in UW) | graft survival (heart; 12 h in LR) | concentration of maximal effect (heart; NTG dose-response, 12 h in LR) | graft blood flow [1] | nitric oxide synthase activity after transplantation (nitric oxide synthase) | graft neutrophil accumulation [2] | concentration of maximal benefit (heart; 8-Br-cGMP dose-response, 12 h in LR) | effect on graft preservation (words) (heart; 12 h in LR) | effect on graft preservation (words) (heart; 12 h in LR, listed as 8-bromo-cGMP) | myeloperoxidase activity (dAbs 460 nm/min) [3]
O=[N+]([O-])OCC(CO[N+](=O)[O-])O[N+](=O)[O-] [NTG, nitroglycerin] | 86.4 ± 4.9 s | 100% | 501±31 mm Hg | 21.4 ± 2.9 mL/min | 1.4±0.1 ×10^3 Woods units | 0.1 mg/mL | 100% | 92% | 0.1 mg/mL | enhanced blood flow | similar | significant decline in both neutrophil and platelet accumulation | – | – | – | –
Nc1nc2c(nc(Br)n2[C@@H]2O[C@@H]3COP(=O)(O)O[C@H]3[C@H]2O)c(=O)[nH]1 [8-Br-cGMP, 8-bromoguanosine-3'5' cyclic monophosphate] | – | – | – | – | – | – | – | – | – | enhanced blood flow | similar | – | 0.5 mM | enhanced cardiac preservation in a dose-dependent manner | enhanced graft survival | 1.75±0.13 dAbs 460 nm/min
